The values that follow come from patent US6566048B1, “Acetyl-COA-carboxylase from Candida albicans” (Syngenta Limited, priority 1997, dated 2003).

The subject of one assay is S. cerevisiae CLS2-13. Put plainly: In-vitro antifungal activity, broth-dilution liquid MIC. Conditions: Saccharomyces cerevisiae, CLS213, 30° C., 48h, MIC determined visually, read-out: Liquid MIC (μg/ml) for Soraphen A. The format is cell-based. On the procedure:
(§1) Compounds were tested over a concentration range of 1024-0.00098 μg/ml by a broth-dilution method in microtitre plates using doubling dilutions in YPD or YPGal (both containing 500 μg/l d-biotin). Stock solutions of inhibitors were prepared at 51.2 mg/ml in Dimethyl sulphoxide (DMSO) (final assay concentration of DMSO was 2% v/v). Each Yeast culture was added to the well to give a final 10^4 cfu/well. The plates were incubated at 30° C. for 48h and MIC's determined visually.

Another assay concerns S. cerevisiae Mey 134. Described as above. The format is cell-based. Conditions: Saccharomyces cerevisiae, MEY134, 30° C., 48h, MIC determined visually, read-out: Liquid MIC (μg/ml) for Soraphen A. On the procedure: as §1
In another assay the test system is C. albicans B2630. The assay is described as above. The format is cell-based. Conditions: Candida albicans, 30° C., 48h, MIC determined visually, read-out: Liquid MIC (μg/ml) for Soraphen A. On the procedure: as §1
Assay [1] concerns S. cerevisiae PNS 120a 6C. The assay is described as above. Conditions: Saccharomyces cerevisiae, PNS120A6C, 30° C., 48h, MIC determined visually, read-out: Liquid MIC (μg/ml) for Soraphen A. The format is cell-based. On the procedure: as §1
For assay [2], the system named is S. cerevisiae PNS 117b 6A. Described as above. The format is cell-based. Conditions: Saccharomyces cerevisiae, PNS117B6A, 30° C., 48h, MIC determined visually, read-out: Liquid MIC (μg/ml) for Soraphen A. On the procedure:
as §1

Assay [3] deals with S. cerevisiae PNS 117a 5C. Described as above. Conditions: Saccharomyces cerevisiae, PNS117A5C, 30° C., 48h, MIC determined visually, read-out: Liquid MIC (μg/ml) for Soraphen A. Type of assay: cell-based. On the procedure: as §1
The subject of assay [4] is S. cerevisiae PNS 120b 1C. Described as above. Type of assay: cell-based. Conditions: Saccharomyces cerevisiae, PNS120B1C, 30° C., 48h, MIC determined visually, read-out: Liquid MIC (μg/ml) for Soraphen A. On the procedure:
as §1

Assay [5] addresses ACCase preparation from S. cerevisiae CLS2-13 (C. albicans ACC1 gene in Yep24) (Candida albicans, UniProt A0A1D8PRR7). Put plainly: In-vitro ACCase assay ([14C] NaHCO3 incorporation). The format is biochemical. Conditions: 37° C., 5 minutes, read-out: IC50 for Soraphen A (nM) against ACCase preparations. On the procedure: (§2) Cultures of the appropriate yeast strains were grown to the exponential phase of growth (for Saccharomyces and Candida strains respectively). These were then harvested by centrifugation (4400 g, 10 min, 4° C.), washed twice in 700 ml of 50 mM Tris pH7.5 containing 20% w/v gylcerol, resuspending the cell pellet each time. […] The volume of buffer required was dependent on the total packed cell wet weight. (i.e. 1 ml buffer added per 6 gm of packed wet cell pellet).
(§3) The cell paste was homogenised using a pre-cooled Bead-Beater (Biospec Products, Bartlesville, Okla. 74005) with 4×10 second Bursts, allowing 20 second intervals on ice. The preparation was then centrifuged at 31,180 g for 30 minutes. After centrifugation the supernatant was immediately decanted into a container, then aliquoted before snap freezing in liquid nitrogen.

The target of assay [6] is ACCase preparation from S. cerevisiae PNS 117a 5C (Candida albicans, UniProt A0A1D8PRR7). The assay can be described thus: In-vitro ACCase assay ([14C] NaHCO3 incorporation). The format is biochemical. Conditions: 37° C., 5 minutes, read-out: IC50 for Soraphen A (nM) against ACCase preparations. On the procedure: as §2, §3
The subject of a further assay is C. albicans ACC1. Conditions: isolated fully functional C. albicans ACC1.
Assay [7] addresses ACCase preparation from S. cerevisiae PNS 117b 6A (Candida albicans, UniProt A0A1D8PRR7). Put plainly: In-vitro ACCase assay ([14C] NaHCO3 incorporation). Type of assay: biochemical, C. albicans. Conditions: 37° C., 5 minutes, read-out: IC50 for Soraphen A (nM) against ACCase preparations. On the procedure: as §2, §3

Values after ≈ are worked out from the molar mass of the structure shown.

ACCase preparation from S. cerevisiae PNS 117a 5C, sequence (A0A1D8PRR7 entry or part of it): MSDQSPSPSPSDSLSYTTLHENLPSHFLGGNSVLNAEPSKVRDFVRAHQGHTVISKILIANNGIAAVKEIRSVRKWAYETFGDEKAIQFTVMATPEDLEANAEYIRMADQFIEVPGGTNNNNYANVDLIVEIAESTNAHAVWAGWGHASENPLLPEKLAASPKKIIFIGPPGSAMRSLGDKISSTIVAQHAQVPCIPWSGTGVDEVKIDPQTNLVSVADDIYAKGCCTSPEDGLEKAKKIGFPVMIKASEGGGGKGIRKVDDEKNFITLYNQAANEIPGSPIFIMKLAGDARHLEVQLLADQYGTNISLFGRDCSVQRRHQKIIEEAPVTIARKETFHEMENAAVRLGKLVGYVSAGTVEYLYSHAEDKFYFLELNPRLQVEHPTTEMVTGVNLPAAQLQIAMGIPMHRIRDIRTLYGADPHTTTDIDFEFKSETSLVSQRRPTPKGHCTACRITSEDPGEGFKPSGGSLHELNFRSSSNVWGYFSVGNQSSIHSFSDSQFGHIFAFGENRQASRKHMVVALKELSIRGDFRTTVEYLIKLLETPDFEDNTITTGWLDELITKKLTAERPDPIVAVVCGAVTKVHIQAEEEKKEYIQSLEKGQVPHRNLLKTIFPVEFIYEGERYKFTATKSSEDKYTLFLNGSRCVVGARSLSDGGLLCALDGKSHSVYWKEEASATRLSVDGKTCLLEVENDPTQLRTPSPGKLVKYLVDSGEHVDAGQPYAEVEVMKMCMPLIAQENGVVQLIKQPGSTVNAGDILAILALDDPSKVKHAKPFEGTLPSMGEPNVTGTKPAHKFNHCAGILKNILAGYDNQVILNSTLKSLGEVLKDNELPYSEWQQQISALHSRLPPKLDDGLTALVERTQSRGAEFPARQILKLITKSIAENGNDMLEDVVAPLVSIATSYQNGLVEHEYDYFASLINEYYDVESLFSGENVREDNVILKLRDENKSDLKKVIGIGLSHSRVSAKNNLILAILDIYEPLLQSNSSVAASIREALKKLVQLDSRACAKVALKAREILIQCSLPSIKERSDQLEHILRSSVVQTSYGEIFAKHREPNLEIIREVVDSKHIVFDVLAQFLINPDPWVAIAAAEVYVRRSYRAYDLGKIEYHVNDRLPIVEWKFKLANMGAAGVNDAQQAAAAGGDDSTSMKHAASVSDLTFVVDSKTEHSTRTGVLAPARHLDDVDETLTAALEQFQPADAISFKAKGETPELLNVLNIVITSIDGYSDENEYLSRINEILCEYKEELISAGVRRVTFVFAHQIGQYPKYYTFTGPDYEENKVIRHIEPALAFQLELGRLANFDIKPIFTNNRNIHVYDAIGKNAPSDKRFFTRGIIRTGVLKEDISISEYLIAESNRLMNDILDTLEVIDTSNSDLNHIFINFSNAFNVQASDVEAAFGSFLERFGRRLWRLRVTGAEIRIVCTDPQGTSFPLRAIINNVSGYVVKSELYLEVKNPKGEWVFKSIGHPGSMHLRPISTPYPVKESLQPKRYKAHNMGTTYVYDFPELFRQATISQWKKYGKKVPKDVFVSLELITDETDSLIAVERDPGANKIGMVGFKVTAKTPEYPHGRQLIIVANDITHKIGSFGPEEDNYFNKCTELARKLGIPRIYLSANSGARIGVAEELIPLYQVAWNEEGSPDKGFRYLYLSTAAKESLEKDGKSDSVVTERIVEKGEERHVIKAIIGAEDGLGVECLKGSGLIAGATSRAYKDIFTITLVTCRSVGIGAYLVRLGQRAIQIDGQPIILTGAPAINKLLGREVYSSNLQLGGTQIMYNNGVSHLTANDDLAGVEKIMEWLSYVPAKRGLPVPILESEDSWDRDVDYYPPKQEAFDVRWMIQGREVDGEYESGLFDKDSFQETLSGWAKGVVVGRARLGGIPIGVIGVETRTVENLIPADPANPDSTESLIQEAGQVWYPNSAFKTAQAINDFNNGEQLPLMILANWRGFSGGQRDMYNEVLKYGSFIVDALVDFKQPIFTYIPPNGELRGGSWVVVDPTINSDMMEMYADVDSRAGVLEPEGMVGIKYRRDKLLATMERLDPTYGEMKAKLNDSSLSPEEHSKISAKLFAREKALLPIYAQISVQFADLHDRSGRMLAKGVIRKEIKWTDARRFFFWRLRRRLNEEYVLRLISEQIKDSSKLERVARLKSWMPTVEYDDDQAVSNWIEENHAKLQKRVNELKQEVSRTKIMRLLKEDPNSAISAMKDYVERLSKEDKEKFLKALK
ACCase preparation from S. cerevisiae CLS2-13 (C. albicans ACC1 gene in Yep24), sequence (A0A1D8PRR7 entry or part of it): as above

As to `CO[C@H]1CCCC[C@@H](c2ccccc2)OC(=O)[C@@H](C)[C@@]2(O)O[C@H]([C@@H](C)[C@H](O)[C@H]2OC)[C@@H](C)/C=C/[C@H]1OC` [Soraphen A], the MIC in the assay on S. cerevisiae CLS2-13 was determined as 2 µg/mL (≈ 3.84 µM); in the assay with S. cerevisiae Mey 134 it was 8 µg/mL (≈ 15.4 µM); in the assay with C. albicans B2630 it was 0.003 µg/mL (≈ 0.00576 µM); in [1], 0.5 µg/mL (≈ 0.96 µM); in [2] it was 4 µg/mL (≈ 7.68 µM); in assay [3], 2 µg/mL (≈ 3.84 µM). The MIC in assay [4] came to 0.125 µg/mL (≈ 0.24 µM). Moreover, the IC50 in [5] is 2.5 nM; in [6], 17.5 nM; in [7], 13.1 nM. The “inhibition by SoraphenA” value in the assay with C. albicans ACC1 was determined as 100%.
